Experimental data as given in article PMC4466390, “Canonical and Noncanonical Sites Determine NPT2A Binding Selectivity to NHERF1 PDZ1” (PLoS ONE, 2015).
Positions count from the first letter of the chain named. “Also recorded” adds a separate entry of the source. Where a SMILES comes first, the peptide text is derived from it. The star is where a group is joined. X1 = CN(C)c1ccc2c(-c3ccc(C(=O)*)cc3C(=O)[O-])c3ccc(=[N+](C)C)cc-3oc2c1

How the values were obtained:
NHERF1 PDZ1 and PDZ2 = conditions: PDZ1 versus PDZ2; ref [10],[14]–[16]; cited from earlier work
Text: Na^+/H^+ Exchanger Regulatory Factor-1 (NHERF1), also known as the 50-kDa ezrin-binding protein EBP50, is a multi-domain scaffolding protein that coordinates the assembly and trafficking of transmembrane receptors and ion channels. […] PDZ domains of NHERF1 recognize the X-S/T-X-ΦCOO ^- sequence of target partners (class I PDZ-binding motifs), where X is promiscuous and Φ is a hydrophobic residue. By conve ...

NHERF1 PDZ1 (1–120) = target: T1, NHERF1 PDZ1 (1–120) (Homo sapiens, UniProt O14745); assay: ITC, PDZ1 (1–120); assay type: binding; conditions: 25°C
T1 construct: PDZ1 (1–120)
T1 sequence (O14745 1-120): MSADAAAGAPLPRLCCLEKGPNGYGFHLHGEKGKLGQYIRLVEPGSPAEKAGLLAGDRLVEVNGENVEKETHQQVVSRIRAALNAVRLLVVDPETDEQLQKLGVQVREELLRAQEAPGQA
Method: (§1) ITC measurements were performed with a MicroCalTM Auto-iTC200 system (GE Healthcare) at 25°C. Before measurement, samples were dialyzed overnight at 4°C in a buffer containing 10 mM Hepes (pH 7.5), 10 mM NaCl, 0.5 mM EDTA, and 0.5 mM ββ-mercaptoethanol. For determining NPT2A binding to PDZ constructs, the reaction cells were filled with 460 μl of 25 μM of the indicated PDZ protein. The ligand NPT2A (200–250 μM), was titrated into the cell in 19 injections of 2 μl each, with 150 s intervals between each injection. To remove the contribution of NPT2A dilution heat, a control experiment has been performed by titrating NPT2A into the buffer, which was then subtracted from the actual experimental data.
(§2) The ITC data were analyzed using Microcal Origin 7.0 and the manufacturer's provided VPViewer module to yield the association constant (Ka), stoichiometry (n), and the observed enthalpy change (ΔH°) for the binding reactions. Analysis of ITC data directly yielded ΔH° and Ka. The Gibbs energy calculated using the equation: ΔG°=−RTlnKa (3)
(§3) The entropy change was then obtained using the standard thermodynamic expression.

NHERF1 PDZ1 H27N (1–120) = target: T2, NHERF1 PDZ1 H27N (1–120) (Homo sapiens, UniProt O14745, H27N); assay: ITC, PDZ1 H27N (1–120); assay type: binding
T2 construct: PDZ1 H27N (1–120)
T2 sequence (O14745 1-120 H27N): T1 sequence (O14745 1-120) with H27N
Method: as §1, §2, §3

[1] = target: T3, NHERF1 PDZ1 H27N/E43D (1–120) (Homo sapiens, UniProt O14745, E43D/H27N); assay: ITC, PDZ1 H27N/E43D (1–120); assay type: binding
T3 construct: PDZ1 H27N/E43D (1–120)
T3 sequence (O14745 1-120 H27N/E43D): T1 sequence (O14745 1-120) with H27N, E43D
Method: as §1, §2, §3

NHERF1 PDZ1 E43D (1–120) = target: T4, NHERF1 PDZ1 E43D (1–120) (Homo sapiens, UniProt O14745, E43D); assay: ITC, PDZ1 E43D (1–120); assay type: binding
T4 construct: PDZ1 E43D (1–120)
T4 sequence (O14745 1-120 E43D): T1 sequence (O14745 1-120) with E43D
Method: as §1, §2, §3

NHERF1 PDZ1 (1–140) = target: T5, NHERF1 PDZ1 (1–140) (Homo sapiens, UniProt O14745); assay: FP saturation binding, PDZ1 (1–140); conditions: acidic pH (5.5, 6.0) compared to pH 7.4
T5 construct: The expression plasmids pET16-N1P1 encoding PDZ1 (1–140); inferred from pET16 vector and Ni-NTA purification; made in house; host or cells: E. coli BL21 (DE3)
T5 sequence (O14745 1-140): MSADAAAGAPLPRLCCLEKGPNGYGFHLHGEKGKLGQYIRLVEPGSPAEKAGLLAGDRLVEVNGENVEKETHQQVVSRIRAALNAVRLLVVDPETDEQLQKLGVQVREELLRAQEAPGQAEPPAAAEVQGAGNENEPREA

NHERF1 PDZ2 D183E = target: T6, NHERF1 PDZ2 D183E (Homo sapiens, UniProt O14745, D183E); assay: FP saturation binding, PDZ2 D183E; conditions: Asp183Glu PDZ2
T6 construct: pET16-N1P2 encoding PDZ2 (133–300) of NHERF1; inferred from pET16 vector and Ni-NTA purification; made in house; host or cells: E. coli BL21 (DE3)
T6 sequence (O14745 133-300 D183E): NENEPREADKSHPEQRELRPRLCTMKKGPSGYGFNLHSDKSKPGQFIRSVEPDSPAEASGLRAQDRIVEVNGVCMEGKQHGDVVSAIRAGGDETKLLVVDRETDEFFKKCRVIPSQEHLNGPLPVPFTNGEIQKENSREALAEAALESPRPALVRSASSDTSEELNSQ

NHERF1 PDZ2 N167H/D183E = target: T7, NHERF1 PDZ2 N167H/D183E (Homo sapiens, UniProt O14745, D183E/N167H); assay: FP saturation binding, PDZ2 N167H/D183E; conditions: Asn167His/Asp183Glu PDZ2
T7 construct: pET16-N1P2 encoding PDZ2 (133–300) of NHERF1; inferred from pET16 vector and Ni-NTA purification; made in house; host or cells: E. coli BL21 (DE3)
T7 sequence (O14745 133-300 N167H/D183E): T6 sequence (O14745 133-300 D183E) with N35H

In the case of `CC(C)C[C@H](NC(=O)[C@H](CCCNC(=N)N)NC(=O)[C@@H](NC(=O)[C@H](C)NC(=O)[C@H](CC(N)=O)NC(=O)[C@H](Cc1c[nH]cn1)NC(=O)[C@H](Cc1c[nH]cn1)NC(=O)[C@H](C)NC(=O)[C@@H]1CCCN1C(=O)[C@H](CC(C)C)NC(=O)[C@H](C)NC(=O)[C@H](CC(C)C)NC(=O)[C@H](CCCNC(=N)N)NC(=O)[C@@H]1CCCN1C(=O)[C@H](CO)NC(=O)[C@@H]1CCCN1C(=O)[C@@H](NC(=O)[C@H](C)NC(=O)[C@@H]1CCCN1C(=O)[C@@H]1CCCN1C(=O)[C@H](CC(C)C)NC(=O)[C@H](CCC(=O)O)NC(=O)c1ccc(-c2c3ccc(=[N+](C)C)cc-3oc3cc(N(C)C)ccc23)c(C(=O)[O-])c1)[C@@H](C)O)[C@@H](C)O)C(=O)O` [NPT2A] (X1-ELPPATPSPRLALPAHHNATRL-OH), the binding selectivity (NHERF1 PDZ1 and PDZ2) is listed as “binds only PDZ1”, the “N (stoichiometry)” value (NHERF1 PDZ1 (1–120); pH 7.5) is listed as 0.92 and the “ΔH^o” value (NHERF1 PDZ1 (1–120); pH 7.5) is listed as -8.2 ± 0.8 kcal/mol. The “ΔG^o” value (NHERF1 PDZ1 (1–120); pH 7.5, from Eq 3) was -7.6 ± 0.8 kcal/mol, the “ΔS^o” value (NHERF1 PDZ1 (1–120); pH 7.5, from Eq 4) was -2.1±0.2 cal/mol/K and the “effect of His27Asn mutation on interaction” value (NHERF1 PDZ1 H27N (1–120); FP and ITC) was “decrease the interaction with NPT2A”. For the same compound, the “N (stoichiometry)” value (NHERF1 PDZ1 H27N (1–120); ITC, 25°C, pH 7.5) was 0.61, the “ΔH^o” value (NHERF1 PDZ1 H27N (1–120); ITC, 25°C, pH 7.5) was -7.5 ± 0.7 kcal/mol and the “ΔG^o” value (NHERF1 PDZ1 H27N (1–120); ITC, 25°C, pH 7.5, from Eq 3) was -7.2 ± 0.7 kcal/mol. For the same compound, the “ΔS^o” value (NHERF1 PDZ1 H27N (1–120); ITC, 25°C, pH 7.5, from Eq 4) was -0.86±0.08 cal/mol/K, the “∆∆G^o” value (NHERF1 PDZ1 H27N (1–120); ∆G^o H27N - ∆G^o WT, ITC) was “about 0.4 kcal/mol” and the “∆∆H^o” value (NHERF1 PDZ1 H27N (1–120); ∆H^o H27N - ∆H^o WT, ITC) was 0.7 kcal/mol. For the same compound, the “∆∆S^o” value (NHERF1 PDZ1 H27N (1–120); ∆S^o H27N - ∆S^o WT, ITC) was 1.3 cal mol^-1 K^-1, the “N (stoichiometry)” value ([1]; 25°C, pH 7.5) was 0.60 and the “ΔH^o” value ([1]; 25°C, pH 7.5) was -5.8 ± 0.6 kcal/mol. The “ΔG^o” value ([1]; 25°C, pH 7.5, from Eq 3) was -6.5 ± 0.6 kcal/mol, the “ΔS^o” value ([1]; 25°C, pH 7.5, from Eq 4) was 2.3±0.3 cal/mol/K and the “∆∆G^o” value ([1]; His27 by Asn and Glu43 by Asp, versus WT) was 1.1 kcal/mol. For the same compound, the “effect of Glu43Asp mutation on interaction” value (NHERF1 PDZ1 E43D (1–120); FP and ITC) was “decrease the interaction with NPT2A”, the “∆∆H^o” value (NHERF1 PDZ1 E43D (1–120); Glu43Asp PDZ1 minus WT, ITC) was 5.2 kcal/mol and the “∆∆S^o” value (NHERF1 PDZ1 E43D (1–120); Glu43Asp PDZ1 minus WT, ITC) was 14.8 cal mol^-1 K^-1. The “N (stoichiometry)” value (NHERF1 PDZ1 E43D (1–120); ITC, 25°C, pH 7.5) was 0.60, the “ΔH^o” value (NHERF1 PDZ1 E43D (1–120); ITC, 25°C, pH 7.5) was -3.0 ± 0.3 kcal/mol and the “ΔG^o” value (NHERF1 PDZ1 E43D (1–120); ITC, 25°C, pH 7.5, from Eq 3) was -6.8 ± 0.7 kcal/mol. For the same compound, the “ΔS^o” value (NHERF1 PDZ1 E43D (1–120); ITC, 25°C, pH 7.5, from Eq 4) was 12.7±1.0 cal/mol/K, the “∆∆G^o” value (NHERF1 PDZ1 E43D (1–120); ∆G^o E43D - ∆G^o WT, ITC) was 0.8 kcal/mol and the “binding affinity at acidic pH” value (NHERF1 PDZ1 (1–140)) was “significantly reduced compared to pH 7.4”. The “binding affinity” value (NHERF1 PDZ2 D183E) was “micromolar affinity” and the “binding affinity” value (NHERF1 PDZ2 N167H/D183E) was “further enhancement of the binding affinity; also recorded: micromolar affinity”.
